Data published in patent publication US10166241B2, “Combination Therapy III” (TURUN YLIOPISTO, priority 2012, dated 2019).

Tests used:
[1] = test system: T98G glioblastoma cells; assay: Apoptosis assay by sub-G0/G1 fraction estimation (apoptotic nuclear fragmentation); assay type: cell-based, human; details: T98G cells transfected with PME-1 specific dsRNA (so in the source)
Procedure: Apoptosis Assay by Sub-G0/G1 Fraction Estimation: […] After 24 hrs of treatment, both floating and adherent cells were harvested by centrifugation. […] The flow cytometric analysis of PI stained nuclei was performed and the recorded data was analyzed using a FACScan flow cytometer and software (Becton Dickinson) respectively. […] The treatments were given 48 hrs after transfection. Following 24 hrs of drug treatment the cells were lysed in hypotonic buffer, and their nuclei were stained with propidium iodide. The stained cell lysates were analysed to estimate the sub-G0/G1 fraction of fragmented nuclei by flow cytometry (FACS) (FIG. 1B).

[2] = test system: U87MG-luciferase glioblastoma cells; assay: Colony formation assay in U87MG-luciferase cells; assay type: cell-based; details: HDAC4 siRNA 48 hrs, then drug 48 hrs (combination)
Excerpt: (§1) Cells plated in very low density (4-6×10^3) in 6-well plates were allowed to grow for about 7 days until they form small colonies. These cells were then transfected with Scrambled or HDAC4 siRNA using Lipofectamine RNAiMAX reagent (Invitrogen) according to the manufacturer's instructions. After 48 hrs, treatments were given with indicated concentration of chemical drugs for another 48 hrs. Cell colonies were washed with PBS, fixed with 3.7% formaldehyde and stained with 0.2% crystal violet solution (made in 10% ethanol) for 15 minutes at room temperature each. Excess stain was removed by repeated washings with PBS. Plates were dried and pictures were taken with Epson perfection V700 scanner and analysed with ImageJ.
(§2) The efficacy of the selected potent drugs was then tested by colony formation assay in […] T98G, and highly-tumorigenic U87MG-luciferase (luciferase expressing U87MG cells) glioblastoma cell lines. For this experiment, the cells were grown in 6-well plates in low density until the formation of small colonies which were then transfected with Scrambled or HDAC4 specific siRNA for 48 hrs followed by treatment with STS, PKC412, K252a, UCN-01 and CEP-701 at the indicated concentrations for another 48 hrs.

[3] = test system: T98G glioblastoma cells; assay: Colony formation assay in T98G cells; assay type: cell-based, human
Excerpt: as §1, §2

[4] = HDAC4.2 siRNA transfected cells treated with drug

Row | Structure (SMILES) | Potentiation % (Scale) ([1]; drug 5 μM) | Potentiation % (amount of apoptotic nuclear fragmentation) ([1]; drug 5 μM) | other results
1 | O=C1NC(=O)c2c1c1c3ccccc3[nH]c1c1[nH]c3ccccc3c21 [Arcyriaflavin A, 12,13-Dihydro-5H-indolo [2,3-a] pyrrolo[3,4-c] carbazole-5,7(6H)-dione] | − ((−) 0-20%) | 5-10% | –
2 | C[C@]12O[C@H](C[C@]1(O)CO)n1c3ccccc3c3c4c(c5c6ccccc6n2c5c31)CNC4=O [CEP-701, (9S,10S,12R)-2,3,9,10,11,12-Hexahydro-10-hydroxy-10-(hydroxyme-thyl)-9-methyl-9,12-epoxy-1H-diindolo [1,2,3-fg:3′,2′,1′-kl] pyrrolo[3,4-i][1, 6] benzo di-azocin-1-one] | +++ ((+++) 60-80%) | 70-80% | Potentiation % (Scale) ([1]; drug 3.5 μM): ++ ((++) 40-60%); Potentiation % (amount of apoptotic nuclear fragmentation) ([1]; drug 3.5 μM): 40-50%; colony growth [2]: less effective
3 | Cn1cc(C2=C(c3cn(C4CCN(Cc5ccccn5)CC4)c4ccccc34)C(=O)NC2=O)c2ccccc21 [Enzastaurin, 3-(1-Methyl-1H-indol-3-yl)-4-(1-(1-(2-pyridinylme-thyl)-4-piperidinyl)-1H-indol-3-yl)-1H-pyrrole-2,5-dione] | − ((−) 0-20%) | 10-20% | –
4 | Cn1c2ccccc2c2c3c(c4c5ccccc5n(CCC#N)c4c21)CNC3=O [GÖ-6976, 12-(2-Cyanoethyl)-6,7,12,13-tetrahydro-13-methyl-5-oxo-5H-indolo[2,3-a]pyrrolo[3,4-c]carbazole] | − ((−) 0-20%) | 10-20% | –
5 | COC(=O)[C@@]1(O)C[C@H]2O[C@]1(C)n1c3ccccc3c3c4c(c5c6ccccc6n2c5c31)C(=O)NC4 [K252a, (9S,10R,12R)-2,3,9,10,11,12-Hexahydro-10-hydroxy-9-methyl-1-oxo-9,12-epoxy-1H-diindolo [1,2,3-fg:3′,2′,1′-kl] pyrrolo[3,4-i][1,6] benzodi-azocine-10-carboxylic acid methyl ester] | ++++ ((++++) 80-100%) | 80-90% | Potentiation % (Scale) ([1]; drug 3.5 μM): ++ ((++) 40-60%); Potentiation % (amount of apoptotic nuclear fragmentation) ([1]; drug 3.5 μM): 50-60%; colony growth [2]: very potent in reducing the colony growth; colony growth ([3]; HDAC4 siRNA 48 hrs, then drug 48 hrs (combination)): very potent in reducing the colony growth; colony growth [3, 4]: reduction in the colony growth
6 | O=C1NCc2c1c1c3ccccc3[nH]c1c1[nH]c3ccccc3c21 [K252c, 6,7,12,13-Tetrahydro-5H-indolo[2,3-a]pyrrolo[3,4-c] carbazol-5-one] | − ((−) 0-20%) | 10-20% | –
7 | CO[C@@H]1[C@H](N(C)C(=O)c2ccccc2)C[C@H]2O[C@@H]1n1c3ccccc3c3c4c(c5c6ccccc6n2c5c31)C(=O)NC4 [PKC412, [9S-(9α,10β,11β, 13α)]-N-(2,3,10, 11,12,13-Hexahydro-10-methoxy-9-methyl-1-oxo-9,13-epoxy-1 H,9H-diindolo [1,2,3-gh:3′,2′,1′-lm]pyrrolo [3,4-j][1,7]benzodiazonin-11-yl)-N-methyl ben-zamide] | ++ ((++) 40-60%) | 50-60% | colony growth [3, 4]: reduction in the colony growth
8 | COC1C(CO)OC(n2c3c(Cl)cccc3c3c4c(c5c6cccc(Cl)c6[nH]c5c32)C(=O)NC4=O)C(O)C1O (stereo not drawn) [Rebeccamycin, 5h-indolo(2,3-a)pyrrolo(3,4-c)carbazole-5,7(6h)-dione,1,11-dichloro-12,13-dihy;dro-12-(4-o-methyl-beta-d-glucopyra-nosyl)] | − ((−) 0-20%) | 5-10% | –
9 | O=C1NC(=O)c2c1c1c3ccccc3n3c1c1c2c2ccccc2n1C1CCC3O1 [SB-218078, 9,10,11,12-Tetrahydro-9,12-epoxy-1H-diindolo [1,2.3-fg:3′,2′,1′-kl] pyrrolo [3,4-i][1,6] benzodi-azocine-1,3(2H)-dione] | + ((+) 20-40%) | 20-30% | –
10 | CN[C@@H]1C[C@H]2O[C@@](C)([C@@H]1OC)n1c3ccccc3c3c4c(c5c6ccccc6n2c5c31)C(=O)NC4 [Staurosporine, [9S-(9α,10β,11β, 13α)]-2,3,10,11, 12,13-Hexa-hydro-10-methoxy-9-methyl-11-(methylamino)-9,13-epoxy-1H,9H-diindolo [1,2,3-gh:3′,2′,1′-lm] pyrrolo [3,4-j][1,7] benzo diazonin-1-one] | – | – | Potentiation % (Scale) ([1]; drug 50 nM): + ((+) 20-40%); Potentiation % (amount of apoptotic nuclear fragmentation) ([1]; drug 50 nM): 30-40%; colony growth [3, 4]: reduction in the colony growth
11 | CN[C@@H]1C[C@H]2O[C@@](C)([C@@H]1OC)n1c3ccccc3c3c4c(c5c6ccccc6n2c5c31)C(=O)N[C@H]4O [UCN-01, (9S)-2,3,10,11,12,13-Hexahydro-3α-hydroxy-10α-methoxy-9-methyl-11α-methyl amino-9β,13β-epoxy-1H,9H-diindolo [1,2,3-gh:3′,2′,1′-lm] pyrrolo [3,4-j][1,7] benzo diazonin-1-one] | – | – | Potentiation % (Scale) ([1]; drug 1.5 μM): + ((+) 20-40%); Potentiation % (amount of apoptotic nuclear fragmentation) ([1]; drug 1.5 μM): 20-30%; Potentiation % (Scale) ([1]; drug 2.5 μM): +++ ((+++) 60-80%); Potentiation % (amount of apoptotic nuclear fragmentation) ([1]; drug 2.5 μM): 70-80%
